Measurements: publication PMC10979747 (Journal of the American Chemical Society, 2024)
Read-outs that look alike come from different tables or passages of the source. Numbered stars: 1 amine (or outer) side, 2 acyl side, 3 side chain; on linkers, the order of the positions; unused ones are H or OH. Bridge positions count the residues as written; N and C are the ends. Square brackets hold non-standard residues; d marks the D form. Peptide text beside a SMILES is read from it. X1 = C=C(N[*:2])c1nc(-c2nc(-c3nc(C(=O)OC)cs3)ccc2C(=O)[*:1])cs1; NMePhe(4-NO2) = CN[C@@H](Cc1ccc([N+](=O)[O-])cc1)C(=O)O; LeuThz(4-CO) = CC(C)C[C@H](N[*:1])c1nc(C(=O)[*:2])cs1; ValThz = CC(C)[C@H](N[*:1])c1nc(C(=O)[*:2])cs1; Tic(7-OH) = O=C(O)[C@@H]1Cc2ccc(O)cc2CN1; X3 = C/C=C(\N[*:1])c1nc(C(=O)[*:2])cs1; Aad = N[C@@H](CCCC(=O)O)C(=O)O; Dhb = C/C=C(\N)C(=O)O; Dha = C=C(N)C(=O)O; Sar = CNCC(=O)O

Tests used:
trypsin = test system: T1, trypsin; experiment: Stability to agarose-immobilized trypsin (LC/MS); assay type: in vitro ADME; conditions: isolated enzyme trypsin, pH 7.9
T1 construct: purchased Thermo Fisher
Procedure: 2.10. Thiopeptide metabolic stability experiments
Stability to trypsin. To a solution of the analyte thiopeptide (15 µM) and the internal standard peptide (5 µM NH2-PEG5-wstndwdtnd-PEG5-CONH2;ref 16 lower case encoding is for D-amino acids; synthesized using the standard Fmoc SPPS techniques) in digestion buffer [50 mM tris, 100 mM NaCl, 10 mM EDTA, pH 7.9] was added agarose -immobilized TPCK-treated trypsin (Thermo Fisher; 1 µL of resin slurry; 100 µL final reaction volume ) that was previously washed with digestion buffer thrice. The mixture was agitated at 22 °C, and at various timepoints (0.5, 1, 2, 4, and 6 h) aliquots were withdrawn and quenched with 14 volumes of water/acetonitrile mixture [30: 70 (v/v) water: acetonitr ile with 0.1% (v/v) TFA]. […]

[1] = Serum stability assay (LC/MS against internal standard); conditions: for half-life at 10 µM: human, human serum diluted in TBS, pH 7.6
TNIK [2] = target: T2, TNIK (Homo sapiens, UniProt Q9UKE5); experiment: Surface plasmon resonance, binding of thiopeptides to immobilized biotinylated TNIK (single-cycle, then multicycle kinetics); set-up: Biotinylated TNIK (kinase domain, amino acids 1-314;); biotin (biotinylated protein); purchased Carna Biosciences (Kobe, Japan); conditions: for KD / koff / kon / Kd: SPR kinetic data, binding to immobilized TNIK; for KD (binding affinity to TNIK): average from three multicycle kinetic experiments, 1:1 binding model, 25 °C; for Kd: read-out: KD
Procedure: 2.8. Surface plasmon resonance
In the initial experiment, binding affinities between the thiopeptides and TNIK were measured with a Biacore T200 instrument (GE Healthcare) at 25 °C. The assay buffer contained 50 mM Tris (pH 7.5), 150 mM NaCl, 10 mM MgCl2, 0.01% (v/v) tween-20 and 0.1% (v/v) DMSO. For wTP3, the assay buffer additionally contained ATP (f.c.: 1 mM).
Biotinylated TNIK was immobilized on a Biacore CAP chip (GE Healthcare) to a surface density of 950-1200 response units following the standard immobilization protocols provided by the manufacturer. The interaction sensorgrams were measured as single-cycle kinetics performed with five concentrations of the ligand sequentially flown over the chip at a flow rate of 15 μL/min allowing for 20 or 30 s association and 70 or 60 s for dissociation between the steps. The final dissociation step was allowed to proceed for 180 s. […]
was repeated in triplicate on a Biacore 8K instrument (GE Healthcare) using a multi cycle kinetics format. The experimental details were as above, except ATP was not added to the buffer for wTP3. Kinetic parameters and affinities of the interaction were determined assuming the standard 1:1 binding model using the Biacore software (GE Healthcare).
Reported KD values were calculated from the average measured association and dissociation rates (Table S5).

TNIK [3] = target: T2, TNIK; experiment: ADP-Glo kinase inhibition assay; assay type: biochemical; set-up: Biotinylated TNIK (kinase domain, amino acids 1-314;); biotin (biotinylated protein); purchased Carna Biosciences (Kobe, Japan)
Procedure: 2.9. Kinase inhibition assays with ADP-Glo
The ADP-Glo assay system was purchased from Promega. The kinase reaction buffer contained 50 mM Tris (pH 7.5), 10 mM MgCl2 and 0.01% (v/v) triton X-100. TNIK (1.25 nM) was incubated with various concentrations of analyte inhibitors in kinase reaction buffer at 25 °C for 10 min. After, the reactions were initiated by the addition of ATP and substrate […]
peptide (MSTtide, sequence: NH2-NKGYNTLRRKK-CONH2;ref 14 synthesized using the standard Fmoc SPPS techniques). The final mixtures containing 0.5 nM TNIK, 25 µM ATP, 15 µM MSTtide and variable concentration of the inhibitors were incubated at 25 °C for 30 min. The reactions were stopped by the addition of ADP -Glo reagent (1 volume), and the luminescent signal was developed following the manufacturer’s instructions. Luminesce was recorded on a Tecan M1000 PRO microplate reader (Tecan Group) with 1 s acquisition time and no signal attenuation. TNIK kinase activity was normalized to a no inhibitor control, and […]
values to the standard 4-parameter logistic curve model. […]

[4] = Stability to glutathione (LC/MS); conditions: for half-life at 10 µM: 5 mM glutathione in HEPES buffer, pH 7.5; for metabolic stability, τ1/2, glutathione: 5 mM glutathione, pH 7.5, 37 °C
Procedure: Stability to glutathione. To a freshly prepared solution of glutathione (5 mM) in stability
buffer [50 mM HEPES (pH 7.5), 100 mM NaCl] was added a solution of analyte (1.5 mM
thiopeptide in DMSO; f. c.: 10 µM). The contents were mixed and transferred to a 37 °C
thermostat. At various time points (0.5, 1, 2, 4, 6, and 10 h) aliquots were withdrawn and
quenched with 2 volumes of methanol containing 30 mM iodoacetamide. The samples were
analyzed by LC/MS (0.3 µL; section 2.6) using method 3. Areas under the peak curve for all
thiopeptide-derived products in the sample (TIC chromatograms) were used to calculate
fractions of intact analyte. Thiopeptide half-life values were obtained from non-linear
regression (scipy)15 of experimentally measured values to the pseudo-first order
approximation for the reaction kinetics which can be used since [glutathione] >> [analyte].

[5] = test system: agarose-immobilized TPCK-treated trypsin (Thermo Fisher); experiment: agarose-immobilized TPCK-treated trypsin in digestion buffer [50 mM tris, 100 mM NaCl, 10 mM EDTA, pH 7.9]; conditions: 22 °C, up to 6 h
[6] = test system: HCT116 colon carcinoma cells; experiment: Cell viability assay (Cell Counting Kit-8); conditions: 8 μM, 24 h, thiopeptide acetate salts
Procedure: HCT116 cells were cultured in McCoy's 5A (Modified) Medium supplemented with 1% (v/v)
penicillin-streptomycin and 10% (v/v) fetal bovine serum (all from Thermo Fisher) in a
All assays were conducted using thiopeptide acetate salts prepared as follows. Strong
anion resin (AG® 1–X8 acetate form, analytical grade, quaternary ammonium 10~50 mg)
was first washed three times with 1.6 N acetic acid and three times with 0.16 N acetic acid.
Then, a thiopeptide solution ( 0.5~3 mg, dissolved in water/ acetonitrile [1:1, v/v; ~1 ml]) was
added to the resin. After 2 h on a rotary shaker, the peptide-resin suspension was ﬁltered
and the liquid phase was recovered. The resin was washed twice with water/acetonitrile (1:1,
v/v; 0.5 ml/wash), and the solutions were combined.
Cell viability assays. HCT116 cells were grown to 40–50% confluency in 96-well plates
that the final DMSO concentration is 1% (v/v) for every sample. In the first experiment (Fig.
S44a), the cells were grown for 24 h, and the incubation time was further extended to 48 h
In both cases, the cell viability was
directly assayed with Cell Counting Kit-8 (Dojindo) following the manufacturer’s instructions
allowing 4 h to develop the signal. Absorbance at 450 nm was measured on a Tecan M1000
PRO microplate reader (Tecan Group), and live cell counts were normalized to the DMSO
control. All experiments were performed in triplicate, and in most cases, replicated at least
once to analogous outcomes.

[7] = 0.5 nM TNIK, 25 µM ATP, 15 µM MSTtide, 4-parameter logistic fit, read-out: ADP-Glo IC50 against TNIK
[8] = 0.5 nM TNIK, 25 µM ATP, 15 µM MSTtide, 4-parameter logistic fit

T2 sequence (Q9UKE5 1-314): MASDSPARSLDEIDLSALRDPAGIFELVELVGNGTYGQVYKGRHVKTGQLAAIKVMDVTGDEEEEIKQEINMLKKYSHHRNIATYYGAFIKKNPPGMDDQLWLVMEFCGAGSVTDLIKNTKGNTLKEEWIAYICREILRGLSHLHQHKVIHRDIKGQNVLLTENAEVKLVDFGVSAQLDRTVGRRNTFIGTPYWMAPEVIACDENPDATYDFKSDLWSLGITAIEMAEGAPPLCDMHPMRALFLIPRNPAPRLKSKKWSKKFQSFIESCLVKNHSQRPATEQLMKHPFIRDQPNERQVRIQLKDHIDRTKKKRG

| Molecule | half-life at 10 µM [1] [h] | KD (TNIK [2]) | KD (binding affinity to TNIK) (TNIK [2]) | half-life at 15 µM (trypsin) [h] | IC50 (TNIK [3]; [7]) [µM] | not cleaved [5] | also measured |
| --- | --- | --- | --- | --- | --- | --- | --- |
| C=C1NC(=O)[C@@H]2CCCN2C(=O)[C@H]([C@@H](C)O)NC(=O)CN(C)C(=O)CN(C)C(=O)CN(C)C(=O)[C@H](Cc2ccc([N+](=O)[O-])cc2)N(C)C(=O)[C@H](CC(N)=O)NC(=O)[C@@H]2Cc3ccc(O)cc3CN2C(=O)[C@H](Cc2ccc([N+](=O)[O-])cc2)N(C)C(=O)[C@H](CO)NC(=O)[C@H](CC(N)=O)NC(=O)[C@H]([C@@H](C)O)NC(=O)[C@H](Cc2c[nH]c3ccccc23)NC(=O)c2ccc(-c3nc(C(=O)OC)cs3)nc2-c2csc1n2 [wTP13] (WTNS[NMePhe(4-NO2)][Tic(7-OH)]N[NMePhe(4-NO2)][Sar][Sar][Sar]TP; linker N-C via X1) | 99.4 ± 13 | weak/no binding; fitting not conducted | no measurable binding/inhibition | – | – | – | half-life at 15 µM (trypsin; agarose-immobilized trypsin, 22 °C, read-out: metabolic stability, τ1/2, trypsin): > 100 h; IC50 (TNIK [3]): 9.6 ± 0.7 µM |
| C=C1NC(=O)[C@@H]2Cc3ccc(O)cc3CN2C(=O)[C@H](CCCNC(=N)N)NC(=O)[C@H](CC(C)C)NC(=O)[C@H](Cc2ccc([N+](=O)[O-])cc2)N(C)C(=O)[C@H](CC(N)=O)NC(=O)[C@H](CC(C)C)NC(=O)[C@H](CCCNC(=N)N)NC(=O)[C@H](CCCC(N)=O)NC(=O)[C@H](C)NC(=O)[C@H](Cc2c[nH]c3ccccc23)NC(=O)c2ccc(-c3nc(C(=O)OC)cs3)nc2-c2csc(n2)C(=C)NC(=O)CNC1=O [hTP13] (WA[Aad](NH2)RLN[NMePhe(4-NO2)]LR[Tic(7-OH)][Dha]G; linker N-C via X1) | 18.9 ± 1.5 | – | – | 1.2 ± 0.1 | 2.7 ± 0.2 | – | half-life at 10 µM [4]: 1.9 ± 0.1 h; metabolic stability, τ1/2, glutathione [4]: less than 2 h; koff (TNIK [2]): 0.0533 s⁻¹; kon (TNIK [2]): 648000 M⁻¹ s⁻¹; Kd (TNIK [2]): 0.082 µM |
| AgfTNyCSTSVC | – | – | – | – | – | did not degrade (6 h); completely stable; τ1/2 >100 h | – |
| C=C1NC(=O)[C@H](CCCC(N)=O)NC(=O)[C@@H]2Cc3ccc(O)cc3CN2C(=O)[C@H](CC(N)=O)NC(=O)/C(=C/C)NC(=O)[C@H](Cc2ccc([N+](=O)[O-])cc2)N(C)C(=O)CN(C)C(=O)[C@H](C)NC(=O)[C@H](Cc2c[nH]c3ccccc23)NC(=O)c2ccc(-c3nc(C(=O)OC)cs3)nc2-c2csc(n2)C(=C)NC(=O)c2csc(n2)[C@H](C(C)C)NC(=O)C(=C)NC(=O)/C(=C/C)NC1=O [wTP8] (WA[Sar][NMePhe(4-NO2)][Dhb]N[Tic(7-OH)][Aad](NH2)[Dha][Dhb][Dha][ValThz]; linker N-C via X1) | 34.9 ± 2.3 | weak/no binding; fitting not conducted | no measurable binding/inhibition | > 100 | 15.2 ± 1.5 | – | – |
| WCgTgySSTfTG | – | – | – | – | – | did not degrade (6 h); completely stable; τ1/2 >100 h | – |
| WLPySTgSTTC | – | – | – | – | – | did not degrade (6 h); τ1/2 > 100 h, no measurable degradation during the course of the experiment | – |
| C=C1NC(=O)[C@H](Cc2ccc([N+](=O)[O-])cc2)N(C)C(=O)[C@H]([C@@H](C)O)NC(=O)C(=C)NC(=O)C(=C)NC(=O)[C@@H]2Cc3ccc(O)cc3CN2C(=O)CN(C)C(=O)C(=C)NC(=O)CN(C)C(=O)[C@H](CCCC(N)=O)NC(=O)[C@H](Cc2c[nH]c3ccccc23)NC(=O)[C@H](Cc2c[nH]c3ccccc23)NC(=O)c2ccc(-c3nc(C(=O)OC)cs3)nc2-c2csc(n2)C(=C)NC(=O)CNC1=O [wTP3] (WW[Aad](NH2)[Sar][Dha][Sar][Tic(7-OH)][Dha][Dha]T[NMePhe(4-NO2)][Dha]G; linker N-C via X1) | 17.2 ± 1.1 | – | single-digit | > 100 | – | – | half-life at 10 µM [4]: 20.6 ± 2 h; metabolic stability, τ1/2, glutathione [4]: 20.6 h; cytotoxicity (cell viability) after 24 h incubation [6]: inactive; koff (TNIK [2]): 0.00579 s⁻¹; kon (TNIK [2]): 1.37e+06 M⁻¹ s⁻¹; Kd (TNIK [2]): 0.0042 µM; ADP-Glo IC50 against TNIK (TNIK [3]; [8]): no measurable binding/inhibition |
| C=C1NC(=O)CN(C)C(=O)/C(=C/C)NC(=O)C(=C)NC(=O)[C@@H]2Cc3ccc(O)cc3CN2C(=O)[C@@H]2CCCN2C(=O)[C@H](CC(C)C)NC(=O)[C@H](Cc2c[nH]c3ccccc23)NC(=O)[C@H](Cc2c[nH]c3ccccc23)NC(=O)c2ccc(-c3nc(C(=O)OC)cs3)nc2-c2csc(n2)C(=C)NC(=O)c2csc(n2)/C(=C/C)NC(=O)/C(=C/C)NC1=O [hTP4] (WWLP[Tic(7-OH)][Dha][Dhb][Sar][Dha][Dhb][X3]; linker N-C via X1) | 18.7 ± 1.5 | weak/no binding; fitting not conducted | no measurable binding/inhibition | > 100 | 24.9 ± 3.6 | – | – |
| C=C1NC(=O)[C@H](Cc2ccc([N+](=O)[O-])cc2)N(C)C(=O)CN(C)C(=O)CNC(=O)[C@H](Cc2c[nH]c3ccccc23)NC(=O)c2ccc(-c3nc(C(=O)OC)cs3)nc2-c2csc(n2)C(=C)NC(=O)c2csc(n2)[C@H](CC(C)C)NC(=O)[C@H](CO)NC(=O)[C@H](CCCNC(=N)N)NC(=O)[C@H](CC(N)=O)NC(=O)CN(C)C(=O)[C@H](CC(C)C)NC(=O)[C@H](CC(N)=O)NC1=O [hTP6] (WG[Sar][NMePhe(4-NO2)][Dha]NL[Sar]NRS[LeuThz(4-CO)]; linker N-C via X1) | 3.6 ± 0.1 | weak/no binding; fitting not conducted | no measurable binding/inhibition | 1.01 ± 0.07 | 10.7 ± 1.1 | – | metabolic stability, τ1/2, serum ([1]; human serum, 37 °C, first-order decay fit): unstable |
| WCgSgySSTfSG | – | – | – | – | – | did not degrade (6 h); completely stable; τ1/2 >100 h | – |
| C=C1NC(=O)C(=C)NC(=O)[C@H](CCCCN)NC(=O)[C@H](CC(C)C)NC(=O)[C@H]([C@@H](C)O)NC(=O)[C@H](CCCCN)NC(=O)[C@H](Cc2ccc(O)cc2)NC(=O)[C@H]([C@@H](C)CC)NC(=O)[C@H](Cc2ccccc2)NC(=O)CNC(=O)[C@H](Cc2c[nH]c3ccccc23)NC(=O)c2ccc(-c3nc(C(=O)OC)cs3)nc2-c2csc(n2)C(=C)NC(=O)CNC1=O [TP1, reference compound] (WGFIYKTLK[Dha][Dha]G; linker N-C via X1) | 2.3 ± 0.1 | – | – | – | – | – | – |
| TNSfyNfgggTP | – | – | – | – | – | completely stable; τ1/2 >100 h | – |
| C=C1NC(=O)[C@@H]2Cc3ccc(O)cc3CN2C(=O)CN(C)C(=O)/C(=C/C)NC(=O)CN(C)C(=O)[C@H](CCCC(N)=O)NC(=O)[C@H](Cc2c[nH]c3ccccc23)NC(=O)[C@H](Cc2c[nH]c3ccccc23)NC(=O)c2ccc(-c3nc(C(=O)OC)cs3)nc2-c2csc(n2)C(=C)NC(=O)CNC(=O)/C(=C/C)NC(=O)[C@H](Cc2ccc([N+](=O)[O-])cc2)N(C)C(=O)[C@H]([C@@H](C)O)NC(=O)C(=C)NC1=O [wTP4] (WW[Aad](NH2)[Sar][Dhb][Sar][Tic(7-OH)][Dha][Dha]T[NMePhe(4-NO2)][Dhb]G; linker N-C via X1) | 14.3 ± 0.7 | – | – | > 100 | 0.24 ± 0.03 | – | koff (TNIK [2]): 0.000432 s⁻¹; kon (TNIK [2]): 42500 M⁻¹ s⁻¹; Kd (TNIK [2]): 0.0102 µM; ADP-Glo IC50 against TNIK (TNIK [3]; [8]): sub-μM |
